Patent publication US7723325B2, “5-amido-indole-2-carboxamide derivatives” (Hoffman-La Roche Inc., priority 2006, dated 2010)

What follows are molecules tested against T1, histamine 3 receptor (H3R) (Homo sapiens, UniProt Q9Y5N1) (assay: Binding assay with 3H-(R)α-Methylhistamine (competition binding, HR3-CHO membranes)). Settings: competition binding vs 3H(R)α-Methylhistamine (1 nM), membrane of the human HR3-CHO cell line; Ki calculated from IC50 (Cheng-Prusoff).
T1 construct: expressed in transfected cells; host or cells: CHO
T1 sequence (Q9Y5N1 whole entry): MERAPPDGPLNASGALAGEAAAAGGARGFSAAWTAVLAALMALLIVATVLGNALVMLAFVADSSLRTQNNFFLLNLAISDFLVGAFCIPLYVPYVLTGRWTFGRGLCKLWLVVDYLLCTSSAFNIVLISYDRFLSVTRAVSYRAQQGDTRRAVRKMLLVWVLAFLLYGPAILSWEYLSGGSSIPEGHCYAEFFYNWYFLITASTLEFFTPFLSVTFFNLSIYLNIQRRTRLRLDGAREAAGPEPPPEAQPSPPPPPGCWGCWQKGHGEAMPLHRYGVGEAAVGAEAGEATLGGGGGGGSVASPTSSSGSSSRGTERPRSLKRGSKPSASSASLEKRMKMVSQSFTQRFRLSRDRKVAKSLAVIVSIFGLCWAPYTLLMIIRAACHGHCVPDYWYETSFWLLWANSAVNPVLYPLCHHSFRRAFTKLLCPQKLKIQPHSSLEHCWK
Method: Binding Assay with ^3H—(R)α-Methylhistamine
Saturation binding experiments were performed using HR3-CHO membranes prepared as described in Takahashi, K, Tokita, S., Kotani, H. (2003) J. Pharmacol. Exp. Therapeutics 307, 213-218.
An appropriate amount of membrane (60 to 80 μg protein/well) was incubated with increasing concentrations of ^3H(R)α-Methylhistamine di-hydrochloride (0.10 to 10 nM). Non specific binding was determined using a 200 fold excess of cold (R)α-Methylhistamine dihydrobromide (500 nM final concentration). The incubation was carried out at room temperature (in deep-well plates shaking for three hours). The final volume in each well was 250 μl. The incubation was followed by rapid filtration on GF/B filters (pre-soaked with 100 μl of 0.5% PEI in Tris 50 mM shaking at 200 rpm for two hours). The filtration was made using a cell-harvester and the filter plates were then washed five times with ice cold washing buffer containing 0.5 M NaCl. After harvesting, the plates were dried at 55° C. for 60 min, then we added scintillation fluid (Microscint 40, 40 microl in each well) and the amount of radioactivity on the filter was determined in Packard top-counter after shaking the plates for two hours at 200 rpm at room temperature.
Binding Buffer: 50 mM Tris-HCl pH 7.4 and 5 mM MgCl2x6H2O pH 7.4. Washing Buffer: 50 mM Tris-HCl pH 7.4 and 5 mM MgCl2x6H2O and 0.5 M NaCl pH 7.4.
Indirect measurement of affinity of H3R inverse agonists: twelve increasing concentrations (ranging from 10 μM to 0.3 nM) of the selected compounds were always tested in competition binding experiments using membrane of the human HR3-CHO cell line. An appropriate amount of protein, e.g. approximately 500 cpm binding of RAMH at Kd, were incubated for 1 hour at room temperature in 250 μl final volume in 96-well plates in presence of ^3H(R)α-Methylhistamine (1 nM final concentration=Kd). Non-specific binding was determined using a 200 fold excess of cold (R)α-Methylhistamine dihydrobromide.
All compounds were tested at a single concentration in duplicates. […] Ki's were calculated from IC50 based on Cheng-Prusoff equation (Cheng, Y, Prusoff, W H (1973) Biochem Pharmacol 22, 3099-3108).

SMILES | Ki
O=C(c1ccc2[nH]c(C(=O)N3CCCCC3)cc2c1)N1CCN(C2CCCC2)CC1 [Example 5, [5-(4-Cyclopentyl-piperazine-1-carbonyl)-1H-indol-2-yl]-piperidin-1-yl-methanone] | 28.7 nM
COc1cccc(-n2c(C(=O)N3CCC(F)(F)CC3)cc3cc(C(=O)N4CCN(C5CCCC5)CC4)ccc32)c1 [Example 84, [5-(4-Cyclopentyl-piperazine-1-carbonyl)-1-(3-methoxy-phenyl)-1H-indol-2-yl]-(4,4-difluoro-piperidin-1-yl)-methanone] | 35.6 nM
CC(C)N1CCN(C(=O)c2ccc3c(c2)cc(C(=O)N2CCS(=O)(=O)CC2)n3-c2cccc(Cl)c2)CC1 [Example 97, [1-(3-Chloro-phenyl)-5-(4-isopropyl-piperazine-1-carbonyl)-1H-indol-2-yl]-(1,1-dioxo-thiomorpholin-4-yl)-methanone] | 13.4 nM
CC(C)N1CCN(C(=O)c2ccc3c(c2)cc(C(=O)N2CCC(F)(F)CC2)n3C2CCC2)CC1 [Example 150, [1-Cyclobutyl-2-(4,4-difluoro-piperidine-1-carbonyl)-1H-indol-5-yl]-(4-isopropyl-piperazin-1-yl)-methanone] | 25.2 nM
CC(C)N1CCN(C(=O)c2ccc3c(c2)cc(C(=O)N2CCS(=O)(=O)CC2)n3-c2ccc(S(C)(=O)=O)cc2)CC1 [Example 221, (1,1-Dioxothiomorpholin-4-yl)-[5-(4-isopropyl-piperazine-1-carbonyl)-1-(4-methanesulfonyl-phenyl)-1H-indol-2-yl]-methanone] | 22.6 nM
CC(C)N1CCCN(C(=O)c2ccc3[nH]c(C(=O)N4CCS(=O)(=O)CC4)cc3c2)CC1 [Example 245, (1,1-Dioxo-thiomorpholin-4-yl)-[5-(4-isopropyl-[1,4]diazepane-1-carbonyl)-1H-indol-2-yl]-methanone] | 41 nM
